Measurements reported in patent publication US6472392B1, “Triazole compounds and the use thereof as dopamine-D3 -ligands” (Abbott Laboratories, priority 1997, dated 2002).

Row | Structure (SMILES) | melting point [°C]
1 | Cn1c(C=CCCN2CCN(c3cc(C(C)(C)C)nc(C(C)(C)C)n3)CC2)nnc1-c1ccccc1 [Example 21, 3-{4-[4-(2,6-Di-t-butylpyrimidin-4-yl)piperazin-1-yl]but-1-enyl}-4-methyl-5-phenyl-1,2,4-(4H)-triazole] | 156 to 161
2 | Cn1c(CCCCN2CCN(c3cc(C(C)(C)C)nc(C(C)(C)C)n3)CC2)nnc1-c1ccccc1 [Example 22, 3-{4-[4-(2,6-Di-t-butylpyrimidin-4-yl)piperazin-1-yl]butyl}-4-methyl-5-phenyl-1,2,4-(4H)-triazole] | 144 to 145
